Laboratory results: patent US12527732B2, “Biobased polyglyceryl esters and compositions comprising the same” (Inolex Investment Corporation, priority 2021, dated 2026)

Key:
Assay type in all cases: physicochemical
[1] = Aqueous Solution Turbidity (AST) / water solubility and clarity of 5% and 10% aqueous solutions
Description: (§1) Measurement of Turbidity via Nephelometric Turbidimetry. Clarity of solutions and formulations is reported as Aqueous Solution Turbidity (AST) or Formulation Turbidity (FT) measured in nephelometric turbidity units (NTU). Turbidity values were determined on an HF Scientific Micro 100 Benchtop Turbidity Meter operating at room temperature (23° C.±2° C.). Aqueous Solution Turbidity is an inherent property of a PGE composition when measured as specified at 5% in deionized water at 23±2° C.

[2] = Critical Micelle Concentration (CMC) via equilibrium surface tensiometry; conditions: pure water, 22° C.
Description: Determination of Critical Micelle Concentration (CMC) via Equilibrium Surface Tensiometry. […] Dipping distance for the plate was set to 3.00 mm prior to return to the surface within +/−0.01 mm for measurement of surface tension force. All tests were performed at 22° C.±0.2° C. For each surfactant a 1.00% stock solution in pure water was prepared and incrementally dosed into initially pure water to augment surfactant concentration while measuring surface tension after each concentration augmentation. Each surfactant was tested in duplicate runs at concentrations ranging from 0.001% to 0.500% of surfactant. The CMC value is taken at the intersection between the regression straight line of the linearly dependent region and the straight line passing through the plateau when surface tension is plotted as a function of concentration.

[3] = STERC via bubble pressure tensiometry; conditions: at the CMC
Description: Dynamic surface tension reduction, i.e. surface tension reduction as a function of time, is measured by bubble pressure tensiometry using the maximum bubble pressure (MBP) method. When dynamic surface tension data obtained from MBP experiments is plotted as a function of surface age, fitting of the data to a first-order decay function as in Formula (III) enables one to obtain the Surface Tension Equilibration Rate Constant (STERC) for a given surfactant at a specific concentration.
Surface Tension Equilibration Rate Constant (STERC) is calculated according to Formula (III): γt=γeq+(γi−γeq)^−t/K (III) where: • γt=surface tension at time=t, in mN/m; • γeq=equilibrium surface tension, in mN/m; • γi=initial surface tension, in mN/m; • t=time, in ms; and • K=surface tension equilibration rate constant (STERC) in ms^−1.
Determination of STERC via Bubble Pressure Tensiometry. Dynamic surface tensions were determined on a Kruss BP100 Bubble Pressure Tensiometer, using a 0.256 mm OD silane-treated glass capillary submerged to a depth of 1.00 cm for testing and buoyancy compensated. […] The STERC as reported herein is determined at the CMC and is obtained by plotting the dynamic surface tension as a function of surface age and fitting the data to the equation below to obtain a first-order rate constant for reduction of surface tension from the initial value to the equilibrium value. […]

[4] = Solubilization of 1% Spectrastat G2 Natural by solubilizer, Formulation Turbidity (FT); conditions: 5% solubilizer, aqueous
Description: as §1

With Heptyl Glucoside [CE4] the “AST @ 5%” value ([1]; 5% in deionized water, 23±2° C.) was 0.65 NTU, the “AST @ 10%” value ([1]; 10% in deionized water) was 1.2 NTU and the CMC [2] was 0.0672 wt %. The “STERC at CMC” value ([3]; 22° C.) was 3226 ms^−1, the STERC ([3]; unit printed s^−1) was 3226 s⁻¹ and the FT [4] was 4.21 NTU.
